In patent US20220073495A1 (priority 2020, published 2022):
Where two headings read alike, the source gives them in different places.

Assays:
A/WSN/33 = assay: microbe, parasite or virus in culture; type: cell-based, influenza virus
A549 cells = details: human
in vitro = details: human
viral M mRNA = assay: smRNA-FISH of M mRNA in WSN-infected cells; type: cell-based, influenza virus (WSN); details: 2.5 μM, WSN MOI 2 for 8 h
[1] = unidentified influenza virus, WSN, A549, 24 h, read-out: WSN IC50, A549 cells, A/WSN/33 MOI 0.01, 24 h post infection, NP-positive cells
[2] = unidentified influenza virus, WSN, A549, 24 h, read-out: WSN IC90, A549 cells, A/WSN/33 MOI 0.01, 24 h post infection, NP-positive cells
[3] = read-out: WSN IC50, A549 cells, A/WSN/33 MOI 0.01, 24 h post infection, NP-positive cells
[4] = read-out: WSN IC90, A549 cells, A/WSN/33 MOI 0.01, 24 h post infection, NP-positive cells

COc1ccc(NC(=O)CSc2nc3ccccc3[nH]2)nc1 [Compound 21]
IC50 (A/WSN/33; [1]): 17.6 µM | IC90 (A/WSN/33; [2]): 45.4 µM | 24 h MTT CC10 (A549 cells): 4.69 µM | CC50 (in vitro): > 50 µM

Brc1ccc(CSc2nc3ccccc3[nH]2)nc1 [Compound 23]
IC50 (A/WSN/33; [1]): > 50 µM | IC90 (A/WSN/33; [2]): > 50 µM | 24 h MTT CC10 (A549 cells): 37.461 µM | CC50 (in vitro): > 50 µM

O=C(CS(=O)(=O)c1nc2ccccc2[nH]1)Nc1ccc(Br)cn1 [Compound 6]
IC50 (A/WSN/33; [1]): 22.6 µM | IC90 (A/WSN/33; [2]): > 50 µM | 24 h MTT CC10 (A549 cells): 23.361 µM | CC50 (in vitro): > 50 µM

Cc1ccc(NC(=O)CSc2nc3ccccc3[nH]2)nc1 [Compound 20]
IC50 (A/WSN/33; [3]): > 50 µM | IC90 (A/WSN/33; [4]): > 50 µM | 24 h MTT CC10 (A549 cells): 7.855 µM | CC50 (in vitro): > 50 µM

C=CCn1c(SCC(=O)Nc2ccc(Br)cn2)nc2ccccc21 [Compound 19]
IC50 (A/WSN/33; [1]): > 50 µM | IC90 (A/WSN/33; [2]): > 50 µM | 24 h MTT CC10 (A549 cells): 18.984 µM | CC50 (in vitro): > 50 µM

O=C(CSc1nc2cc(F)ccc2[nH]1)Nc1ccc(Br)cn1 [Compound 27]
IC50 (A/WSN/33; [1]): 16.1 µM | IC90 (A/WSN/33; [2]): 18.2 µM | 24 h MTT CC10 (A549 cells): 2.905 µM | CC50 (in vitro): > 50 µM

COc1ccc2[nH]c(SCC(=O)Nc3ccc(Br)cn3)nc2c1 [Compound 28]
IC50 (A/WSN/33; [1]): 46.5 µM | IC90 (A/WSN/33; [2]): 50 µM | 24 h MTT CC10 (A549 cells): 7.52 µM | CC50 (in vitro): > 50 µM

O=C(C[S+]([O-])c1nc2ccccc2[nH]1)Nc1ccc(Br)cn1 (stereo not shown) [Compound 7]
IC50 (A/WSN/33; [1]): 11.9 µM | IC90 (A/WSN/33; [2]): > 50 µM | 24 h MTT CC10 (A549 cells): 31.074 µM | CC50 (in vitro): > 50 µM

Cc1ccc(NC(=O)CSc2nc3ccccc3[nH]2)nc1 [Compound 24]
IC50 (A/WSN/33; [3]): 8.7 µM | IC90 (A/WSN/33; [4]): 24.5 µM | 24 h MTT CC10 (A549 cells): 5.552 µM | CC50 (A549 cells): > 50 µM

Cc1ccc2[nH]c(SCC(=O)Nc3ccc(Br)cn3)nc2c1 [Compound 26]
IC50 (A/WSN/33; [1]): 25.5 µM | IC90 (A/WSN/33; [2]): > 50 µM | 24 h MTT CC10 (A549 cells): 6.797 µM | CC50 (A549 cells): 49.7 µM

O=C(CSc1nc2ccccc2[nH]1)NC1CCCCC1 [Compound 10]
IC50 (A/WSN/33; [1]): > 50 µM | IC90 (A/WSN/33; [2]): > 50 µM | 24 h MTT CC10 (A549 cells): >50 µM | CC50 (in vitro): > 50 µM

O=C(CSc1nc2ccccc2[nH]1)Nc1ccc(F)cn1 [Compound 22]
IC50 (A/WSN/33; [1]): 43.3 µM | IC90 (A/WSN/33; [2]): > 50 µM | 24 h MTT CC10 (A549 cells): 31.688 µM | CC50 (in vitro): > 50 µM

COc1ccc(-n2c(SC(C)C(=O)Nc3ccc(C)cc3Cl)nc3ccccc32)cc1 (stereo not shown) [JMN3-003, reference compound]
nuclear export of viral M mRNA (viral M mRNA): does not inhibit | total M mRNA fluorescence intensity (viral M mRNA): decreased

COc1ccc(C2C(CC(C)C(=O)Nc3ccc(Br)cn3)=Cc3ccccc32)cc1 (stereo not shown) [Compound 14]
IC50 (A/WSN/33; [1]): > 50 µM | IC90 (A/WSN/33; [2]): > 50 µM | 24 h MTT CC10 (A549 cells): 15.941 µM | CC50 (A549 cells): > 50 µM

O=C(CSc1nc2ccccc2[nH]1)Nc1ccc(Br)cc1 [Compound 4]
IC50 (A/WSN/33; [1]): > 50 µM | IC90 (A/WSN/33; [2]): > 50 µM | 24 h MTT CC10 (A549 cells): >50 µM | CC50 (in vitro): > 50 µM
